Patent US6352958B1, “Cycloimido-substituted benzofused heterocyclic herbicides” (FMC Corporation, priority 1997, dated 2002)

Experiments:
Format in all cases: in vivo
[1] = tested on: velvetleaf (Abutilon theophrasti); experiment: Postemergence herbicidal activity, velvetleaf; settings: rate of application 0.3 Kg/Ha, rated after 12-17 days
[2] = tested on: Johnsongrass (Sorghum halepense); experiment: Postemergence herbicidal activity, johnsongrass; settings: rate of application 0.3 Kg/Ha, rated after 12-17 days
[3] = tested on: common chickweed (Stellaria media); experiment: Postemergence herbicidal activity, chickweed; settings: rate of application 0.3 Kg/Ha, rated after 12-17 days
[4] = tested on: Johnsongrass (Sorghum halepense); experiment: Preemergence herbicidal activity, johnsongrass; settings: Rate of Application 0.3 Kg/Ha, examined after 12-17 days
[5] = tested on: common cocklebur (Xanthium strumarium L.); experiment: Postemergence herbicidal activity, cocklebur; settings: rate of application 0.3 Kg/Ha, rated after 12-17 days
[6] = tested on: green foxtail (Setaria viridis); experiment: Postemergence herbicidal activity, green foxtail; settings: rate of application 0.3 Kg/Ha, rated after 12-17 days
[7] = tested on: blackgrass (Aloepecurus myosuroides); experiment: Postemergence herbicidal activity, blackgrass; settings: rate of application 0.3 Kg/Ha, rated after 12-17 days
[8] = tested on: green foxtail (Setaria viridis); experiment: Preemergence herbicidal activity, green foxtail; settings: Rate of Application 0.3 Kg/Ha, examined after 12-17 days
[9] = tested on: blackgrass (Aloepecurus myosuroides); experiment: Preemergence herbicidal activity, blackgrass; settings: Rate of Application 0.3 Kg/Ha, examined after 12-17 days
[10] = tested on: morningglory (Ipomea lacunosa or Ipomea hederacea); experiment: Preemergence herbicidal activity, morningglory; settings: Rate of Application 0.3 Kg/Ha, examined after 12-17 days
[11] = tested on: soybean (Glycine max var. Winchester); experiment: Postemergence herbicidal activity, soybean; settings: rate of application 0.3 Kg/Ha, rated after 12-17 days
[12] = tested on: field corn (Zea mays var. Pioneer 3732); experiment: Postemergence herbicidal activity, corn; settings: rate of application 0.3 Kg/Ha, rated after 12-17 days
[13] = tested on: soybean (Glycine max var. Winchester); experiment: Preemergence herbicidal activity, soybean; settings: Rate of Application 0.3 Kg/Ha, examined after 12-17 days
[14] = tested on: wheat (Triticum aestivum var. Lew); experiment: Preemergence herbicidal activity, wheat; settings: Rate of Application 0.3 Kg/Ha, examined after 12-17 days
[15] = tested on: velvetleaf (Abutilon theophrasti); experiment: Preemergence herbicidal activity, velvetleaf; settings: Rate of Application 0.3 Kg/Ha, examined after 12-17 days
[16] = tested on: common chickweed (Stellaria media); experiment: Preemergence herbicidal activity, chickweed; settings: Rate of Application 0.3 Kg/Ha, examined after 12-17 days
[17] = tested on: field corn (Zea mays var. Pioneer 3732); experiment: Preemergence herbicidal activity, corn; settings: Rate of Application 0.3 Kg/Ha, examined after 12-17 days
[18] = tested on: common cocklebur (Xanthium strumarium L.); experiment: Preemergence herbicidal activity, cocklebur; settings: Rate of Application 0.3 Kg/Ha, examined after 12-17 days
[19] = tested on: wheat (Triticum aestivum var. Lew); experiment: Postemergence herbicidal activity, wheat; settings: rate of application 0.3 Kg/Ha, rated after 12-17 days
[20] = tested on: morningglory (Ipomea lacunosa or Ipomea hederacea); experiment: Postemergence herbicidal activity, morningglory; settings: rate of application 0.3 Kg/Ha, rated after 12-17 days

Structure (SMILES) | Postemergence herbicidal activity (% control) ABUTH [1] | Postemergence herbicidal activity (% control) SORHA [2] | Postemergence herbicidal activity (% control) STEME [3] | PREEMERGENCE HERBICIDAL ACTIVITY (% CONTROL) SORHA [4] | Postemergence herbicidal activity (% control) XANPE [5] | Postemergence herbicidal activity (% control) SETVI [6] | Postemergence herbicidal activity (% control) ALOMY [7] | PREEMERGENCE HERBICIDAL ACTIVITY (% CONTROL) SETVI [8] | PREEMERGENCE HERBICIDAL ACTIVITY (% CONTROL) ALOMY [9] | PREEMERGENCE HERBICIDAL ACTIVITY (% CONTROL) IPOSS [10] | Postemergence herbicidal activity (% control) SOY [11] | Postemergence herbicidal activity (% control) CRN [12] | PREEMERGENCE HERBICIDAL ACTIVITY (% CONTROL) SOY [13] | PREEMERGENCE HERBICIDAL ACTIVITY (% CONTROL) WHT [14] | PREEMERGENCE HERBICIDAL ACTIVITY (% CONTROL) ABUTH [15] | PREEMERGENCE HERBICIDAL ACTIVITY (% CONTROL) STEME [16] | PREEMERGENCE HERBICIDAL ACTIVITY (% CONTROL) CRN [17] | PREEMERGENCE HERBICIDAL ACTIVITY (% CONTROL) XANPE [18] | Postemergence herbicidal activity (% control) WHT [19] | Postemergence herbicidal activity (% control) IPOSS [20]
CCOC(OCC)c1cc2c(Cl)cc(F)c(-n3c(=O)cc(C(F)(F)F)n(C)c3=O)c2o1 [Compound 245] | 100% | 70% | 60% | 80% | 70% | 70% | 50% | 100% | 70% | 100% | 85% | 75% | 100% | 60% | 100% | 90% | 80% | 100% | 40% | 100%
CCN(CC)Cc1cc2c(Cl)ccc(-n3c(=O)cc(C(F)(F)F)n(C)c3=O)c2o1 [Compound 257] | 100% | 50% | 30% | 10% | 70% | 70% | 30% | 70% | 20% | 70% | 70% | 70% | 40% | 0% | 90% | 0% | 10% | 20% | 20% | 60%
Cn1c(C(F)(F)F)cc(=O)n(-c2c(F)cc(Cl)c3cc(CCCl)oc23)c1=O [Compound 236] | 100% | 100% | 100% | 100% | 100% | 100% | 80% | 100% | 80% | 100% | 100% | 90% | 100% | 70% | 100% | 100% | 95% | 100% | 75% | 100%
COC(C)(C)c1cc2c(Cl)ccc(-n3c(=O)cc(C(F)(F)F)n(C)c3=O)c2o1 [Compound 251] | 100% | 95% | 100% | 100% | 95% | 100% | 100% | 100% | 90% | 100% | 95% | 90% | 90% | 90% | 100% | 95% | 95% | 100% | 70% | 100%
Cn1c(C(F)(F)F)cc(=O)n(-c2c(F)cc(Br)c3oc(NS(C)(=O)=O)nc23)c1=O [Compound 108] | 20% | 20% | 0% | 30% | 10% | 70% | 10% | 50% | 50% | 50% | 50% | 60% | 0% | 0% | 70% | 40% | 10% | 10% | 20% | 60%
COC(=O)CCc1cc2c(Cl)cc(F)c(-n3c(=O)cc(C(F)(F)F)n(C)c3=O)c2o1 [Compound 263] | 100% | 70% | 100% | 70% | 100% | 90% | 60% | 100% | 75% | 100% | 95% | 90% | 100% | 50% | 100% | 100% | 65% | 95% | 80% | 100%
Cn1c(C(F)(F)F)cc(=O)n(-c2c(F)cc(Cl)c3oc(N)nc23)c1=O [Compound 38] | 100% | 50% | 0% | 60% | 45% | 40% | 20% | 75% | 30% | 100% | 70% | 60% | 60% | 50% | 100% | 0% | 80% | 70% | 35% | 100%
Cc1nc2c(-n3c(=O)cc(C(F)(F)F)n(C)c3=O)c(F)cc(Br)c2o1 [Compound 16] | 100% | 80% | 70% | 95% | 95% | 80% | 70% | 100% | 80% | 100% | 95% | 80% | 100% | 70% | 100% | 100% | 90% | 90% | 60% | 100%
